Measurements taken from ChEMBL document CHEMBL3046644, “Biological activity of tropolone” (Biol Pharm Bull, 2003).
Converted amounts (≈) assume the structure as drawn.

Assays:
[1] = system: Coptotermes formosanus; assay: Insecticidal activity against Coptotermes formosanus assessed as mortality at 0.020 g/m'2 after 24 hr; type: functional
[2] = system: Coptotermes formosanus; assay: Insecticidal activity against Coptotermes formosanus assessed as mortality at 0.010 g/m'2 after 48 hr; type: functional
[3] = system: Tyrophagus putrescentiae; assay: Insecticidal activity against Tyrophagus putrescentiae assessed as mortality at 0.20 g/m'2 after 24 hr by clip method; type: functional
[4] = system: Dermatophagoides farinae; assay: Insecticidal activity against Dermatophagoides farinae assessed as mortality after 24 hr by clip method; type: functional
[5] = system: Colletotrichum lagenaria; assay: Antifungal activity against Colletotrichum lagenaria after 15 days by agar dilution method; type: functional; conditions: 360 h
[6] = system: Tyrophagus putrescentiae; assay: Insecticidal activity against Tyrophagus putrescentiae assessed as mortality at 0.40 g/m'2 after 24 hr by clip method; type: functional
[7] = system: Dermatophagoides farinae; assay: Insecticidal activity against Dermatophagoides farinae assessed as mortality at 0.80 g/m'2 after 24 hr by clip method; type: functional
[8] = system: Tyrophagus putrescentiae; assay: Insecticidal activity against Tyrophagus putrescentiae assessed as mortality at 0.60 g/m'2 after 24 hr by clip method; type: functional
[9] = system: Dermatophagoides farinae; assay: Insecticidal activity against Dermatophagoides farinae assessed as mortality at 0.60 g/m'2 after 24 hr by clip method; type: functional
[10] = system: Coptotermes formosanus; assay: Insecticidal activity against Coptotermes formosanus assessed as mortality at 0.050 g/m'2 after 24 hr; type: functional
[11] = system: Coptotermes formosanus; assay: Insecticidal activity against Coptotermes formosanus assessed as mortality at 0.200 g/m'2 after 24 hr; type: functional
[12] = molecular target: T1, Carboxypeptidase A1 (Bos taurus, UniProt P00730); assay: Inhibition of Bos taurus (bovine) pancrease carboxypeptidase A after 15 min
T1 sequence (P00730 whole entry): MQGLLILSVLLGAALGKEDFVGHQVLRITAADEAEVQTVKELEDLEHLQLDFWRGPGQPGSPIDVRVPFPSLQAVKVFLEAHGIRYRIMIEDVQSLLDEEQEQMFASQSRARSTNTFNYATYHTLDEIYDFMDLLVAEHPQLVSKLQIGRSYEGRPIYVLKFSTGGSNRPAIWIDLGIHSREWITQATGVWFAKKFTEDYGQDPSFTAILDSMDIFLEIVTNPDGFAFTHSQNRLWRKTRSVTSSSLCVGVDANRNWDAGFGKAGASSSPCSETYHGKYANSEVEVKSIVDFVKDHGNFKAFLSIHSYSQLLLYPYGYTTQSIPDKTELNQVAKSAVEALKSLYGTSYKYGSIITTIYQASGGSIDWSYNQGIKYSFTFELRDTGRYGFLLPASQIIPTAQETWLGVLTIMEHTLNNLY

[13] = system: Pythium aphanidermatum; assay: Antifungal activity against Pythium aphanidermatum IFO 32440 after 15 days by agar dilution method; type: functional; conditions: IFO 32440, 360 h
[14] = system: Dermatophagoides farinae; assay: Insecticidal activity against Dermatophagoides farinae assessed as mortality at 0.10 g/m'2 after 24 hr by clip method; type: functional
[15] = system: Thanatephorus cucumeris; assay: Antifungal activity against Thanatephorus cucumeris IFO 30445 after 15 days by agar dilution method; type: functional; conditions: IFO 30445, 360 h
[16] = system: Coptotermes formosanus; assay: Insecticidal activity against Coptotermes formosanus assessed as mortality at 0.020 g/m'2 after 48 hr; type: functional
[17] = system: Colletotrichum orbiculare; assay: Antifungal activity against Colletotrichum orbiculare MAFF 306518 after 15 days by agar dilution method; type: functional; conditions: MAFF 306518, 360 h
[18] = system: Dermatophagoides farinae; assay: Insecticidal activity against Dermatophagoides farinae assessed as mortality at 0.03 g/m'2 after 24 hr by clip method; type: functional
[19] = system: Tyrophagus putrescentiae; assay: Insecticidal activity against Tyrophagus putrescentiae assessed as mortality at 1 g/m'2 after 24 hr by clip method; type: functional
[20] = system: Tyrophagus putrescentiae; assay: Insecticidal activity against Tyrophagus putrescentiae assessed as mortality at 0.80 g/m'2 after 24 hr by clip method; type: functional
[21] = system: Dermatophagoides farinae; assay: Insecticidal activity against Dermatophagoides farinae assessed as mortality at 0.20 g/m'2 after 24 hr by clip method; type: functional
[22] = system: Dermatophagoides farinae; assay: Insecticidal activity against Dermatophagoides farinae assessed as mortality at 0.40 g/m'2 after 24 hr by clip method; type: functional
[23] = system: Fusarium solani; assay: Antifungal activity against Fusarium solani IFO 9955 after 15 days by agar dilution method; type: functional; conditions: IFO 9955, 360 h
[24] = system: Dermatophagoides farinae; assay: Insecticidal activity against Dermatophagoides farinae assessed as mortality at 1 g/m'2 after 24 hr by clip method; type: functional
[25] = system: Coptotermes formosanus; assay: Insecticidal activity against Coptotermes formosanus assessed as mortality at 1 g/m'2 after 24 hr; type: functional
[26] = system: Coptotermes formosanus; assay: Insecticidal activity against Coptotermes formosanus assessed as mortality; type: functional
[27] = system: Coptotermes formosanus; assay: Insecticidal activity against Coptotermes formosanus assessed as mortality at 0.050 g/m'2 after 48 hr; type: functional
[28] = system: Coptotermes formosanus; assay: Insecticidal activity against Coptotermes formosanus assessed as mortality at 0.010 g/m'2 after 24 hr; type: functional
[29] = system: Tyrophagus putrescentiae; assay: Insecticidal activity against Tyrophagus putrescentiae assessed as mortality after 24 hr by clip method; type: functional
[30] = system: Botrytis cinerea; assay: Antifungal activity against Botryotinia fuckeliana IFO 30915 after 15 days by agar dilution method; type: functional; conditions: IFO 30915, 360 h
[31] = molecular target: T2, Collagenase ColG (Clostridium histolyticum, UniProt Q9X721); assay: Inhibition of Clostridium histolyticum collagenase after 15 min; set-up: species or system Hathewaya histolytica
T2 sequence (Q9X721 whole entry): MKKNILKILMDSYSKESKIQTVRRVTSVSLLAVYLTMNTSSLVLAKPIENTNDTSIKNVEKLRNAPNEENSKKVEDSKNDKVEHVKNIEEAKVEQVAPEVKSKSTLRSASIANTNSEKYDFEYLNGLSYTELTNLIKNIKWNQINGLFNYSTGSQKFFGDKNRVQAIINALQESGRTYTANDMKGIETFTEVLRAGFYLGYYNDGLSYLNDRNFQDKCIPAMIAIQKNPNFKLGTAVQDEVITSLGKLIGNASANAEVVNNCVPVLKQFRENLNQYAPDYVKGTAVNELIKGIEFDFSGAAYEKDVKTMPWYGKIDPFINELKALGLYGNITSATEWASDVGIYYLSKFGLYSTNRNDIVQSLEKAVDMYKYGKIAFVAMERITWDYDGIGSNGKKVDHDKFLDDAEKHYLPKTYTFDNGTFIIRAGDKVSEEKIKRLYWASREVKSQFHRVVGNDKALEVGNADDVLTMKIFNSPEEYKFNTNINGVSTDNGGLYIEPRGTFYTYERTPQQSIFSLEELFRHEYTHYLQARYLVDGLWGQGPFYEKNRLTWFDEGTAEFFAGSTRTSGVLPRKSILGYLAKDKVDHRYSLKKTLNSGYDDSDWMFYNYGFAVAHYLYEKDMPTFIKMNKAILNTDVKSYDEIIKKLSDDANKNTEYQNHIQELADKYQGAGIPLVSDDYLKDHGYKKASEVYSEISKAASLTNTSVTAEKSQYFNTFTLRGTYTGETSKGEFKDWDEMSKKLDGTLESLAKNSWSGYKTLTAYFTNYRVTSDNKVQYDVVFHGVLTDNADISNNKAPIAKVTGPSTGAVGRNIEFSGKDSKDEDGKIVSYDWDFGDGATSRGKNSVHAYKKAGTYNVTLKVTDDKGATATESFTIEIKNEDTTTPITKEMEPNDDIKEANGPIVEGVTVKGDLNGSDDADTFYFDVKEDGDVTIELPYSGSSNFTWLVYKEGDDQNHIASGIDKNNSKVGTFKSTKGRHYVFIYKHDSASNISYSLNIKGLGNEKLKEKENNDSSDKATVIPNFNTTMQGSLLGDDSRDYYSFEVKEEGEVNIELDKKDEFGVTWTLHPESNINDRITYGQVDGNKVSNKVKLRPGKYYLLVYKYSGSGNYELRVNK

[32] = system: Coptotermes formosanus; assay: Insecticidal activity against Coptotermes formosanus assessed as mortality at 1 g/m'2 after 48 hr; type: functional
[33] = system: Coptotermes formosanus; assay: Insecticidal activity against Coptotermes formosanus assessed as mortality at 0.100 g/m'2 after 24 hr; type: functional
[34] = system: Dermatophagoides farinae; assay: Insecticidal activity against Dermatophagoides farinae assessed as mortality at 0.05 g/m'2 after 24 hr by clip method; type: functional
[35] = molecular target: T3, Thermolysin (Bacillus thermoproteolyticus, UniProt P00800); assay: Inhibition of Bacillus thermoproteolyticus thermolysin after 15 min
T3 sequence (P00800 whole entry): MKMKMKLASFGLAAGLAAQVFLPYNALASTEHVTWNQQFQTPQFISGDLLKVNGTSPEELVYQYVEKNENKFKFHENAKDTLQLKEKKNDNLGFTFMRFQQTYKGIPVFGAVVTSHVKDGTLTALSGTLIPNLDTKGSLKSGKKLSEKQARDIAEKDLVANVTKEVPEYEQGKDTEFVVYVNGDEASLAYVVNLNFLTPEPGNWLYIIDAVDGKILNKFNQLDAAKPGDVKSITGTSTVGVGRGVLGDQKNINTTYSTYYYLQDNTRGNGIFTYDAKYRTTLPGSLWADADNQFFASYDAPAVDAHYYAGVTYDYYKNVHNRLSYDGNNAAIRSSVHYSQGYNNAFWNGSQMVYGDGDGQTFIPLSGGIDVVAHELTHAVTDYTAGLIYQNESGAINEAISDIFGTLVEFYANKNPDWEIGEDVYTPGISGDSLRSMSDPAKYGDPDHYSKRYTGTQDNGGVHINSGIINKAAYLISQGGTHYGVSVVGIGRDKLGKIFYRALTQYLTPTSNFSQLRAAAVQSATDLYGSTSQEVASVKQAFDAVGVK

[36] = system: Coptotermes formosanus; assay: Insecticidal activity against Coptotermes formosanus assessed as mortality at 0.200 g/m'2 after 48 hr; type: functional
[37] = system: Coptotermes formosanus; assay: Insecticidal activity against Coptotermes formosanus assessed as mortality at 0.100 g/m'2 after 48 hr; type: functional
[38] = system: Phomopsis obscurans; assay: Antifungal activity against Phomopsis obscurans MAFF 744018 after 15 days by agar dilution method; type: functional; conditions: Paraphomopsis obscurans, MAFF 744018, 360 h
[39] = system: Coptotermes formosanus; assay: Insecticidal activity against Coptotermes formosanus assessed as mortality at 0.00025 g/m'2 after 24 hr; type: functional
[40] = system: Coptotermes formosanus; assay: Insecticidal activity against Coptotermes formosanus assessed as mortality at 0.00050 g/m'2 after 24 hr; type: functional
[41] = system: Coptotermes formosanus; assay: Insecticidal activity against Coptotermes formosanus assessed as mortality at 0.00005 g/m'2 after 48 hr; type: functional
[42] = system: Coptotermes formosanus; assay: Insecticidal activity against Coptotermes formosanus assessed as mortality at 0.00025 g/m'2 after 48 hr; type: functional
[43] = system: Coptotermes formosanus; assay: Insecticidal activity against Coptotermes formosanus assessed as mortality at 0.00050 g/m'2 after 48 hr; type: functional
[44] = system: Coptotermes formosanus; assay: Insecticidal activity against Coptotermes formosanus assessed as mortality at 0.00010 g/m'2 after 24 hr; type: functional
[45] = system: Coptotermes formosanus; assay: Insecticidal activity against Coptotermes formosanus assessed as mortality at 0.00005 g/m'2 after 24 hr; type: functional
[46] = system: Coptotermes formosanus; assay: Insecticidal activity against Coptotermes formosanus assessed as mortality at 0.00010 g/m'2 after 48 hr; type: functional
[47] = system: Coptotermes formosanus; assay: Insecticidal activity against Coptotermes formosanus assessed as mortality at 0.00001 g/m'2 after 24 hr; type: functional
[48] = system: Tyrophagus putrescentiae; assay: Insecticidal activity against Tyrophagus putrescentiae assessed as mortality at 0.50 g/m'2 after 24 hr by clip method; type: functional
[49] = system: Dermatophagoides farinae; assay: Insecticidal activity against Dermatophagoides farinae assessed as mortality at 0.50 g/m'2 after 24 hr by clip method; type: functional
[50] = system: Tyrophagus putrescentiae; assay: Insecticidal activity against Tyrophagus putrescentiae assessed as mortality at 0.10 g/m'2 after 24 hr by clip method; type: functional

O=c1cccccc1O [TROPOLONE]
mortality [1]: 37.5%
mortality [2]: 0%
mortality [3]: 9.6%
LC50 [4]: 0.08 g/m2
MIC [5]: 12 µg/mL (≈ 98.3 µM)
mortality [6]: 55.8%
mortality [7]: 100%
mortality [8]: 79.8%
mortality [9]: 100%
mortality [10]: 45%
mortality [11]: 100%
IC50 [12]: 2.73 µM
MIC [13]: 6 µg/mL (≈ 49.1 µM)
mortality [14]: 24.5%
MIC [15]: 12 µg/mL (≈ 98.3 µM)
mortality [16]: 57.9%
MIC [17]: 12 µg/mL (≈ 98.3 µM)
mortality [18]: 0%
mortality [19]: 100%
mortality [20]: 100%
mortality [21]: 95.7%
mortality [22]: 100%
MIC [23]: 25 µg/mL (≈ 205 µM)
mortality [24]: 100%
mortality [25]: 100%
LC50 [26]: 0.04 g/m2
mortality [27]: 77.8%
mortality [28]: 0%
LC50 [29]: 0.11 g/m2
MIC [30]: 25 µg/mL (≈ 205 µM)
IC50 [31]: 46.8 µM
mortality [32]: 100%
mortality [33]: 78.9%
mortality [34]: 7.5%
IC50 [35]: 71.1 µM
mortality [36]: 100%
mortality [37]: 89.5%
MIC [38]: 12 µg/mL (≈ 98.3 µM)

CCOP(=S)(OCC)Oc1nc(Cl)c(Cl)cc1Cl [CHLORPYRIFOS]
mortality [39]: 60%
mortality [40]: 100%
mortality [41]: 40%
mortality [42]: 100%
mortality [43]: 100%
mortality [44]: 25%
mortality [45]: 10%
mortality [46]: 75%
LC50 [26]: 0.00016 g/m2
mortality [47]: 0%

CCN(CC)C(=O)c1cccc(C)c1 [DIETHYLTOLUAMIDE]
mortality [3]: 4.5%
LC50 [4]: 0.79 g/m2
mortality [48]: 18.9%
mortality [14]: 0%
mortality [19]: 67.1%
mortality [21]: 7.2%
mortality [24]: 45.5%
LC50 [29]: 1.46 g/m2
mortality [49]: 20.5%
mortality [50]: 0%
